Experimental data from PubChem BioAssay (NCI).
Values joined by “and” are separate entries in the source; they are usually repeats but may differ in a detail not shown here. Equal entries are not always repeated.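 1) Cells in 96-well plates. 2) Compound, 48 h, 5 concentrations. 3) Linear interpolation between surrounding doses. 4) Unreached endpoint = highest concentration. GI50 is the concentration that inhibits growth by half. The concentration for full growth arrest is given as TGI.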

Assays:
Assay in all cases: inhibition of tumour cell growth, NCI panel, 48 h
RPMI-8226 leukemia = test system: RPMI-8226 leukemia
HCT-116 colon = test system: HCT-116 colon
HOP-62 NSCLC = test system: HOP-62 NSCLC
HT29 colon = test system: HT29 colon
ACHN renal = test system: ACHN renal
TK-10 renal = test system: TK-10 renal
OVCAR-4 ovarian = test system: OVCAR-4 ovarian
U251 CNS = test system: U251 CNS
NCI-H23 lung = test system: NCI-H23 lung
UACC-62 melanoma = test system: UACC-62 melanoma

SMILES | GI50 (RPMI-8226 leukemia) | TGI (RPMI-8226 leukemia) | GI50 (HCT-116 colon) | TGI (HCT-116 colon) | GI50 (HOP-62 NSCLC) | TGI (HOP-62 NSCLC) | GI50 (HT29 colon) | TGI (HT29 colon) | GI50 (ACHN renal) | TGI (ACHN renal) | GI50 (TK-10 renal) | TGI (TK-10 renal) | GI50 (OVCAR-4 ovarian) | TGI (OVCAR-4 ovarian) | GI50 (U251 CNS) | TGI (U251 CNS) | GI50 (NCI-H23 lung) | TGI (NCI-H23 lung) | GI50 (UACC-62 melanoma) | TGI (UACC-62 melanoma)
O=c1n(CC2CO2)c(=O)n(CC2CO2)n1CC1CO1 (configuration not stated) | 13.6 µM | > 57.8 µM | 18.9 µM | > 100 µM | 4.7 µM | > 35.5 µM | 19.3 µM | > 100 µM | 2.69 µM | > 100 µM | 27.9 µM | > 100 µM | 19.2 µM | > 85 µM | 10.9 µM | > 100 µM | 22.7 µM | > 100 µM | 6.51 µM | > 64.1 µM
O=C1/C(=C/c2ccc([N+](=O)[O-])cc2)COc2ccc(O)c(O)c21 | 0.316 µM | 1.01 µM | 1.57 µM | 3.35 µM | 2.57 µM | 6.34 µM | 2.2 µM | 5.85 µM | 1.5 µM | 2.92 µM | 1.68 µM | 3.99 µM | 1.44 µM | 2.78 µM | 0.785 µM | 3.55 µM | 1.77 µM | 3.74 µM | 1.57 µM | 3.35 µM
COc1ccc2c(c1)C1(C=N2)CCN(C(C)=O)CC1 |  | > 100 µM |  | > 100 µM |  | > 100 µM |  | > 100 µM |  | > 100 µM |  | > 100 µM |  | > 100 µM |  | > 100 µM |  | > 100 µM |  | > 100 µM
NC(CCc1nc(-c2ccc(Cl)cc2)cs1)C(=O)O (configuration not stated) |  | > 100 µM |  | > 100 µM |  | > 100 µM |  | > 100 µM |  | > 100 µM |  | > 100 µM |  | > 100 µM |  | > 100 µM |  | > 100 µM |  | > 100 µM
COc1cc2c(c(OC)c1O)C(=O)C(OC)C(c1ccc(O)c(O)c1)O2 (configuration not stated) | 0.285 µM | 12.9 µM | 0.396 µM | > 100 µM | 0.712 µM | > 100 µM | 6.1 µM | > 67.7 µM | 0.662 µM | > 100 µM | 40 µM | > 100 µM | > 100 µM | > 100 µM | 0.418 µM | > 100 µM | 0.385 µM | > 100 µM | 0.345 µM | > 100 µM
O=C1C2=C(SCCS2)C(=O)c2ccccc21 |  | 5.35 µM |  | 3.04 µM |  | 2.9 µM |  | 4.44 µM |  | 3.05 µM |  | 3.24 µM |  | 3.01 µM |  | 3.02 µM |  | 3.34 µM |  | 3.04 µM
CCCCCCCCSC1=CC(=O)c2nc3ccccc3c3ccnc1c23 | 60.2 µM | > 100 µM | 43.1 µM | > 100 µM | > 100 µM | > 100 µM | > 100 µM | > 100 µM | 52.2 µM | > 100 µM | > 100 µM | > 100 µM | 19.1 µM | > 100 µM | 92.6 µM | > 100 µM | 58.2 µM | > 100 µM | 42 µM | > 100 µM
O=C(O)c1cc(C(=O)O)cc(N2C(=O)c3ccccc3C2=O)c1 |  | > 100 µM |  | > 100 µM |  | > 100 µM |  | > 100 µM |  | > 100 µM |  | > 100 µM |  | > 100 µM |  | > 100 µM |  | > 100 µM |  | > 100 µM
COc1cc2nc(C)nc(N[C@H](C)c3cc(N)cc(C(F)(F)F)c3)c2cc1O[C@H]1CCOC1 | 11 µM | 47.9 µM | 11.4 µM | 29.6 µM | 11.1 µM | 25.6 µM | 13.4 µM | 28.4 µM | 11.6 µM | 23.9 µM | 2.9 µM | 20.6 µM | 17 µM | 55.1 µM | 10.6 µM | 23.7 µM | 13.2 µM | 30.6 µM | 16.3 µM | 31 µM
COc1cc(/C=C/c2cc(/C=C/c3ccc(O)c(OC)c3)n(C(=O)Nc3ccc(F)cc3)n2)ccc1O | 0.454 µM | 3.37 µM | 0.422 µM | 10.3 µM | 1.07 µM | 9.36 µM | 2.03 µM | 4.69 µM | 0.704 µM | 61.2 µM | 3.43 µM | 19.2 µM | 1.36 µM | 7.57 µM | 0.769 µM | 10.5 µM | 0.727 µM | 4.45 µM | 0.817 µM | 6.68 µM
CCNC1C2(CCCCC2)NC(=O)C12CCCCC2 (configuration not stated) |  | > 100 µM |  | > 100 µM |  | > 100 µM |  | > 100 µM |  | > 100 µM |  | > 100 µM |  | > 100 µM |  | > 100 µM |  | > 100 µM |  | > 100 µM
CCN(CC)CC(C(=O)Nc1c(C)cccc1C)/C(C)=N\NC(=O)C[N+](C)(C)C (configuration not stated) |  | > 100 µM |  | > 100 µM |  | > 100 µM |  | > 100 µM |  | > 100 µM |  | > 100 µM |  | > 100 µM |  | > 100 µM |  | > 100 µM |  | > 100 µM
COc1ccc(-n2/c(=N/C(=S)N(C)C)ss/c2=N\C(=S)N(C)C)cc1 |  | > 100 µM |  | > 100 µM |  | > 100 µM |  | 5.97 µM |  | > 100 µM |  | > 100 µM |  | 18.5 µM |  | > 100 µM |  | > 100 µM |  | 24.8 µM
Clc1cccc(Cc2cn3cc(-c4ccccc4)nc3s2)c1Cl | > 100 µM | > 100 µM | > 100 µM | > 100 µM | 3.9 µM | 47.7 µM | > 100 µM | > 100 µM | 30.2 µM | > 100 µM | 26.1 µM | > 100 µM | 3.85 µM | 55.2 µM | 25.5 µM | > 100 µM | 60.7 µM | > 100 µM | 1.83 µM | > 100 µM
O=C(N/C(=C\c1cc(Cl)ccc1Cl)c1nc2[nH]c(=S)[nH]c(=O)c2[nH]1)c1ccccc1 |  | 42.7 µM |  | 21.3 µM |  | > 100 µM |  | 39.6 µM |  | > 100 µM |  | > 100 µM |  | > 100 µM |  | > 76.1 µM |  | > 65.8 µM |  | > 92.9 µM
CCOC(=O)COc1cccc2c1C(=O)CCO2 |  | > 100 µM |  | > 100 µM |  | > 100 µM |  | > 100 µM |  | > 100 µM |  | > 100 µM |  | > 100 µM |  | > 100 µM |  | > 100 µM |  | > 100 µM
Nc1cc2nc3ccccc3sc-2cc1=O | 2.54 µM | 26.4 µM | 2.56 µM | 10.3 µM | 2.51 µM | 5.71 µM | 2.92 µM | 6.86 µM | 2.5 µM | 11.1 µM | 5.72 µM | 16.2 µM | 2.15 µM | 6.21 µM | 3.63 µM | 15.1 µM | 1.54 µM | 3.76 µM | 1.55 µM | 3.33 µM
CC1(C)OC(=O)C(=Cc2ccc(O)cc2)C(=O)O1 |  | > 100 µM |  | > 100 µM |  | > 100 µM |  | > 100 µM |  | > 100 µM |  | > 100 µM |  | > 100 µM |  | > 100 µM |  | > 100 µM |  | > 100 µM
Cc1ccc(-c2nnc(-c3ccc4ccccc4c3)o2)cc1 |  | > 100 µM |  | > 100 µM |  | > 77.4 µM |  | > 100 µM |  | > 100 µM |  | > 60.6 µM |  | > 100 µM |  | > 100 µM |  | > 100 µM |  | > 85.6 µM
O=C1c2ccccc2C(=O)c2sc(Nc3cccc(Cl)c3)nc21 |  | 4.07 µM |  | 2.54 µM |  | 3.19 µM |  | 8.36 µM |  | 3.03 µM |  | 5.39 µM |  | 2.72 µM |  | 2.97 µM |  | 3.59 µM |  | 3.25 µM
CCOC(=O)Nc1nc2ccc(OCC)cc2s1 | 27.1 µM | > 100 µM | 6.42 µM | > 100 µM | 39.4 µM | > 100 µM | 3.98 µM | > 100 µM | > 100 µM | > 100 µM | > 100 µM | > 100 µM | > 82.5 µM | > 100 µM | 25.5 µM | > 100 µM | > 100 µM | > 100 µM | 13.4 µM | > 100 µM
O=C1NNC(=O)c2ccccc2SSc2ccccc2C(=O)NNC(=O)c2ccccc2SSc2ccccc21 |  | 50 µM | 5.05 µM | 50 µM and > 100 µM |  | 50 µM and > 100 µM | 20.1 µM | 50 µM and 72.1 µM | 7.34 µM | 50 µM and > 100 µM | 70.9 µM | 50 µM and > 100 µM |  | 50 µM and > 100 µM | 7.11 µM | 50 µM and > 100 µM | 7.63 µM | 50 µM and 59.8 µM | 8.34 µM | 50 µM and > 100 µM
